From patent US20200147028A1, “TREATMENT OF RESPIRATORY INFECTION WITH A TLR2 AGONIST” (Ena Therapeutics Pty Ltd, priority 2017, published 2020)
“Also recorded” adds a separate entry of the source.

Columns and labels:
[1] = parameters: species or system BALB/c mice; settings: mouse, in vivo
Source text: Each group contained 5 mice.

CXCL1 [2] = assay: Mouse RV1B infection with fluticasone propionate: CXCL1 in BAL by ELISA; type: in vivo, BALB/c mice; settings: 2 pmol INNA-006, with or without FP; day 2 p.i.
TNF-α = assay: Mouse RV1B infection with fluticasone propionate: TNF-α in BAL by ELISA; type: in vivo, BALB/c mice
[3] = tested on: other TLR pattern recognition receptors; assay: TLR panel NF-κB SEAP reporter in HEK293 cells: other TLRs; type: cell-based; settings: human and mouse TLR panels
Procedure: (§1) INNA-006 was assessed for its ability to activate a range of other TLR pattern recognition receptors. These assessments were conducted using both human and mouse TLR panels. These assays detect a secreted embryonic alkaline phosphatase (SEAP) reporter under the control of a promoter which is inducible by NF-κB activation in HEK293 cells. The secreted embryonic alkaline phosphatase (SEAP) reporter is under the control of a promoter inducible by the transcription factor NF-κB. This reporter gene allows the monitoring of signaling through the TLR, based on the activation of NF-κB. In a 96-well plate (200 μL total volume) containing the appropriate cells (50,000-75,000 cells/well), 20 μL of the test article or the positive control ligand is added to the wells. The media added to the wells is designed for the detection of NF-κB induced SEAP expression. After a 16-24 hr incubation the optical density (OD) is read at 650 nm on a Molecular Devices SpectraMax 340PC absorbance detector.

BAL inflammatory cells [4] = assay: Mouse RV1B infection model: BAL cell analysis
Procedure: Following sacrifice, mice were tracheally cannulated and 1 ml of Hanks buffered saline solution (Hyclone™, GE Life Sciences) flushed through the airways, 3-5 times. BAL cells were pelleted by centrifugation and supernatant was collected and stored at −80° C. for ELISAs. The pelleted cells were red blood cells lysed and the remaining cells were counted on a heamocytometer by trypan blue exclusion. Cell suspensions were then cytocentrifuged onto slides and fixed and stained with Diff Quick (POCD) solutions as per manufacturer's recommendations. A minimum of 200 total cells were counted per slide and numbers of neutrophils, lymphocytes, and macrophages were determined.

TNFα = assay: Mouse RV1B infection model: TNFα in BAL by ELISA
Procedure: (§2) Remaining lung lobes we snap frozen in liquid nitrogen, homogenised in 600 μl PBS containing protease inhibitors (Roche) by TissueLyser II run twice at 30 Hz for 4 minutes. Cell debris was pelleted by centrifugation, samples were diluted 1:2 with PBS and stored at −80° C. BAL fluid was then analysed for production of KC/IL-8 (CXCL1) and TNF-α by Duoset ELISA (R&D Systems) as per manufacturer's instructions.

CXCL1 [5] = assay: Mouse RV1B infection model: CXCL1 in BAL by ELISA
Procedure: as §2

[6] = tested on: Rhinovirus serotype 1B (RV1B); assay: Mouse RV1B infection model: lung viral RNA by qPCR; settings: for lung viral load: day +1
TLR-2 = TLR-2 (Homo sapiens, UniProt O60603); assay: TLR panel NF-κB SEAP reporter in HEK293 cells: TLR-2; type: cell-based; parameters: expressed in transfected cells; host or cells: HEK293; settings: human and mouse TLR panels, FIG. 21
Sequence of TLR-2 (O60603 21-784): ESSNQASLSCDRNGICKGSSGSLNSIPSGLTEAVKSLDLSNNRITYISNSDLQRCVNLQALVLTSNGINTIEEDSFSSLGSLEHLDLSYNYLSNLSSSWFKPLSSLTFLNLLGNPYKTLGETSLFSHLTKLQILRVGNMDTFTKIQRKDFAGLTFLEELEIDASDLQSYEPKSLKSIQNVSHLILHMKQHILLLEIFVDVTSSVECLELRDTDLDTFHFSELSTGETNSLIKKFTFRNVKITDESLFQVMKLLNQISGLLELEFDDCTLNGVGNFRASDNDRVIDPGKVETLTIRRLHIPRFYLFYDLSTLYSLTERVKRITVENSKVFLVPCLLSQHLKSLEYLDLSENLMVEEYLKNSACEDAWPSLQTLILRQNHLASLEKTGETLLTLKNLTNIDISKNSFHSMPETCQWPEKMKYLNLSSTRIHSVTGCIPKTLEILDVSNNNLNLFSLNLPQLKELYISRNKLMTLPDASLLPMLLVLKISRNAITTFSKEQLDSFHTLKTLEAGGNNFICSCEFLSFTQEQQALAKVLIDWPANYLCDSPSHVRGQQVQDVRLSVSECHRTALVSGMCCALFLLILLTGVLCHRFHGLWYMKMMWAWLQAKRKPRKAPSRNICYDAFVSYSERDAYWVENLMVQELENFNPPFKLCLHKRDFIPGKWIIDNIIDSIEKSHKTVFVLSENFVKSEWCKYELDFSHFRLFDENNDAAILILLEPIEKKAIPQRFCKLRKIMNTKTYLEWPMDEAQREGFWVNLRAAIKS
Sequence of TLR-2 (Q9Y2C9 32-796 partner): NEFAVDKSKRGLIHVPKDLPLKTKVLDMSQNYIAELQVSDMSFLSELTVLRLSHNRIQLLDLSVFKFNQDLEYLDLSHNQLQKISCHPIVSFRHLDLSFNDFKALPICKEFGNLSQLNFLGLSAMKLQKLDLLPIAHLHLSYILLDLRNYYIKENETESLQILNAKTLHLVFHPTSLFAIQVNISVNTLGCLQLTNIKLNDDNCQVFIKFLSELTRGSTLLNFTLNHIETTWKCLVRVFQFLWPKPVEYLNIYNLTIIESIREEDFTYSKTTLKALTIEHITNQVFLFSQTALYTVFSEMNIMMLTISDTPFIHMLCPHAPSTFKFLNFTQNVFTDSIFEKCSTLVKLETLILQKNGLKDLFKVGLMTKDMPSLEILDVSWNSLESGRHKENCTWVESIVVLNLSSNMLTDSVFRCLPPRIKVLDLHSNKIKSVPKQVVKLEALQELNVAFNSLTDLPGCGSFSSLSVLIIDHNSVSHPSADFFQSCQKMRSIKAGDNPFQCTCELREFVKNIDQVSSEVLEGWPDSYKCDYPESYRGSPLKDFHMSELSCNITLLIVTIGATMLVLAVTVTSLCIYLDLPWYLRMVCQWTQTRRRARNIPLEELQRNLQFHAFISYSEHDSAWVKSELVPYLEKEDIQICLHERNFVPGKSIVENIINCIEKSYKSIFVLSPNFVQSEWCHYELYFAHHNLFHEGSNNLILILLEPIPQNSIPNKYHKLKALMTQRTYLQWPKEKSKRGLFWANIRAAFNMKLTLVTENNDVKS
Procedure: as §1

BAL inflammatory cells [7] = assay: Mouse RV1B infection with fluticasone propionate: BAL cell analysis
Procedure: Following sacrifice, mice were tracheally cannulated and 1 ml of Hanks buffered saline solution (Hyclone™, GE Life Sciences) flushed through the airways, 3-5 times. BAL cells were pelleted by centrifugation and supernatant was collected and stored at −80° C. for ELISAs. The pelleted cells were red blood cells lysed and the remaining cells were counted on a heamocytometer by trypan blue exclusion. Cell suspensions were then cytocentrifuged onto slides and fixed and stained with Diff Quick (POCD) solutions as per manufacturers recommendations. A minimum of 200 total cells were counted per slide and numbers of neutrophils, lymphocytes, and macrophages were determined.

RV1B = RV1B infection of ALI-differentiated BCi-NS1 cells: viral RNA by qPCR; settings: 20 nM and 2 nM pre-treatment 24 h; 96 h post infection; vs control
[8] = tested on: Rhinovirus serotype 1B (RV1B); assay: Mouse RV1B infection with fluticasone propionate: lung viral RNA by qPCR
[9] = Study 1G: lowest doses (2 pmole and 1 pmole) day +1, listed as Peg-S-Pam2Cys

CCC(=O)OCC(CSCC(N)C(=O)NC(CO)C(=O)NCCOCC(=O)NCC(N)=O)OC(=O)CC (stereo not drawn) [INNA-006, Pam2Cys-Ser-PEG]
weight loss [1]: weight loss at the higher doses | weight loss after second dose [1]: no weight loss observed | CXCL1 in BAL (CXCL1 [2]): neutrophil chemokine production supressed; also recorded: supressed CXCL1 production; also recorded: drastically reduced levels of mouse neutrophil chemokine CXCL1; also recorded: highly effective at suppressing CXCL1 expression | TNF-α in BAL (TNF-α; repeated doses (D-7 & D-1)): not observed | TNF-α in BAL (TNF-α; single 2 pmol dose seven days prior to infection): significant TNF-α production in BAL | activation of other TLRs (SEAP reporter) [3]: no activation of any other TLR tested | RV-induced BAL neutrophilic inflammation (BAL inflammatory cells [4]; Study 1E: day −7, day 2 p.i., listed as Peg-S-Pam2Cys): reduced RV-induced BAL neutrophilic inflammation; also recorded: reduced RV-induced neutrohillic inflammation; also recorded: significantly reduced neutrophilic inflammation | BAL macrophages (BAL inflammatory cells [4]; Study 1F: 2 pmol day −7, mock): higher numbers of macrophages compared to its saline mock control group | BAL lymphocytes (BAL inflammatory cells [4]; Study 1F: 2 pmol, day −7, day −1 or both): promoted lymphocyte recruitment in the BAL | total BAL leukocytes in RV1B infected mice (BAL inflammatory cells [4]; Study 1F: 2 pmol, vs Saline RV): did not induce significantly higher leukocyte recruitment | total BAL leukocytes in mock infected mice (BAL inflammatory cells [4]; Study 1F: 2 pmol, vs Saline mock): Total leukocytes were increased | neutrophilic response in uninfected mice (BAL inflammatory cells [4]; Study 1F: three days after dosing (d-1 groups)): not Peg-S-Pam2Cys | BAL lymphocytes (BAL inflammatory cells [4]; Study 1G: day +1 treatment): no changes to lymphocyte numbers | BAL macrophages (BAL inflammatory cells [4]; Study 1G: day +1 treatment): significantly reducing macrophage numbers | total BAL leucocyte numbers (BAL inflammatory cells [4]; Study 1G: day +1 treatment): no significant differences | BAL neutrophils (BAL inflammatory cells [4]; Study 1G: day +1 treatment, listed as Peg-S-Pam2Cys): drastically increases neutrophil numbers in BAL; also recorded: increasing neutrophil recruitment | TNF-α in BAL (TNFα; Study 1E: day −7, listed as Peg-S-Pam2Cys): not increased by any of the compounds; also recorded: lack of induction of TNFα | TNF-α in BAL (TNFα; Study 1F: 2 pmol, all groups): did not induce TNF-α in any of the groups | TNF-α in BAL (TNFα; Study 1G: 10-1 pmol day +1): dose dependent upon drug treatment | TNF-α in BAL (TNFα; [9]): not increased by the lowest doses; also recorded: no significant increase in KC or TNFα | RV-induced expression of CXCL1 (CXCL1 [5]; Study 1E(ii): INNA-011 and INNA-006 comparison, day −7): reduced RV-induced expression of CXCL1 | CXCL1 in BAL (CXCL1 [5]; Study 1E: 10 pmol and 5 pmol dose day −7): effectively reduced CXCL1 levels | CXCL1 in BAL (CXCL1 [5]; Study 1F: 2 pmol day −1, RV1B, listed as Peg-S-Pam2Cys): CXCL1 production was only increased; also recorded: significantly increased in mice treated one day prior to infection | CXCL1 / lung inflammation after day −1 dose with prior day −7 dose (CXCL1 [5]; Study 1F: 2 pmol day −7 and day −1, listed as Peg-S-Pam2Cys): protected from lung inflammation; also recorded: completely abolished | CXCL1 in BAL (CXCL1 [5]; Study 1G: 10-1 pmol day +1): dose dependent upon drug treatment | CXCL1 (KC) in BAL (CXCL1 [5]; [9]): not increased by the lowest doses; also recorded: no significant increase in KC or TNFα | reduction of RV infection (lung RV copy number) ([6]; Study 1E: 10 pmol day −7): 86.76% | anti-viral efficacy relative to Pam2CysSK4 ([6]; Study 1E: 10 pmol dose day −7, listed as Peg-S-Pam2Cys): better anti-viral efficacy compared to Pam2CysSK4 | dose dependence of RV suppression ([6]; Study 1E: 1-10 pmol day −7): appeared to be dose dependant | RV copy number in lung ([6]; Study 1E: every dose 1-10 pmol day −7, day 2 p.i.): significant reduction in RV infection | viral clearance, day −7 + day −1 versus day −7 only ([6]; Study 1F: 2 pmol): enhanced viral clearance compared to mice dose only on day 7 | reduced viral RNA ([6]; Study 1F: single treatment at day −7): 70% | reduction in viral RNA ([6]; Study 1F: treatment at both days −7 and −1): approx. 90% | RV copy numbers in lung ([6]; Study 1G: 10, 5, 2, 1 pmol 1 day post-infection, day 2 p.i.): reduces RV1B copy numbers in the lung | lung viral load ([6]; Study 1G: doses 5 pmole per mouse and lower): significant reduction in lung viral load | lung viral load ([6]; Study 1G: highest dose 10 pmole per mouse): less effective and not significant | activation of TLR-2 (SEAP reporter) (TLR-2): able to activate its proposed target (TLR-2) | RV-induced, steroid resistant neutrophilic inflammation (BAL inflammatory cells [7]; 2 pmol, all treatment protocols, with or without FP): prevented RV-induced and steroid resistant neutrophilic inflammation; also recorded: completely ameliorated RV-induced and steroid resistant neutrophilic inflammatory response; also recorded: complete suppression of RV-induced steroid resistant neutrophilic inflammation | BAL macrophages and lymphocytes (BAL inflammatory cells [7]; D-7 INNA-006 2 pmol with FP): increased macrophages and lymphocytes when given in conjunction with FP | BAL macrophages and lymphocytes (BAL inflammatory cells [7]; combined D-7 & D-1 INNA-006 2 pmol): increased macrophages and lymphocytes in BAL | BAL macrophages (BAL inflammatory cells [7]; combined D-7 & D-1 INNA-006 in FP treated mice): Increased Macrophages | total BAL leukocyte numbers (BAL inflammatory cells [7]; repeated 2 pmol INNA-006 (day −7 & day −1)): increased total leukocyte numbers | reduction of viral RNA levels (RV1B): approximately 50% | viral lung load ([8]; 2 pmol INNA-006, both treatment protocols, all groups): reduced virus lung load in all groups; also recorded: significant reduction in viral load with both treatment protocols | viral lung load / antiviral efficacy ([8]; repeated INNA-006 (D-7 & D-1) with FP): antiviral efficacy of repeated INNA-006 treatment was enhanced by FP; also recorded: best suppression of viral lung RNA
